The source of these data is ChEMBL document CHEMBL2074027, “Polyaromatic alkaloids from marine invertebrates as cytotoxic compounds and inhibitors of multidrug resistance caused by P-glycoprotein” (Br J Cancer, 1996).

The data set deals with ATP-dependent translocase ABCB1 (Homo sapiens, UniProt P08183). The data set is described as follows: TP_TRANSPORTER: inhibition of Rhodamine 123 efflux (R123: 20 uM, Lamellarin I: 10 uM) in Lo Vo/Dx cells. It counts as functional, cell-based.
Sequence of ATP-dependent translocase ABCB1 (P08183 whole entry): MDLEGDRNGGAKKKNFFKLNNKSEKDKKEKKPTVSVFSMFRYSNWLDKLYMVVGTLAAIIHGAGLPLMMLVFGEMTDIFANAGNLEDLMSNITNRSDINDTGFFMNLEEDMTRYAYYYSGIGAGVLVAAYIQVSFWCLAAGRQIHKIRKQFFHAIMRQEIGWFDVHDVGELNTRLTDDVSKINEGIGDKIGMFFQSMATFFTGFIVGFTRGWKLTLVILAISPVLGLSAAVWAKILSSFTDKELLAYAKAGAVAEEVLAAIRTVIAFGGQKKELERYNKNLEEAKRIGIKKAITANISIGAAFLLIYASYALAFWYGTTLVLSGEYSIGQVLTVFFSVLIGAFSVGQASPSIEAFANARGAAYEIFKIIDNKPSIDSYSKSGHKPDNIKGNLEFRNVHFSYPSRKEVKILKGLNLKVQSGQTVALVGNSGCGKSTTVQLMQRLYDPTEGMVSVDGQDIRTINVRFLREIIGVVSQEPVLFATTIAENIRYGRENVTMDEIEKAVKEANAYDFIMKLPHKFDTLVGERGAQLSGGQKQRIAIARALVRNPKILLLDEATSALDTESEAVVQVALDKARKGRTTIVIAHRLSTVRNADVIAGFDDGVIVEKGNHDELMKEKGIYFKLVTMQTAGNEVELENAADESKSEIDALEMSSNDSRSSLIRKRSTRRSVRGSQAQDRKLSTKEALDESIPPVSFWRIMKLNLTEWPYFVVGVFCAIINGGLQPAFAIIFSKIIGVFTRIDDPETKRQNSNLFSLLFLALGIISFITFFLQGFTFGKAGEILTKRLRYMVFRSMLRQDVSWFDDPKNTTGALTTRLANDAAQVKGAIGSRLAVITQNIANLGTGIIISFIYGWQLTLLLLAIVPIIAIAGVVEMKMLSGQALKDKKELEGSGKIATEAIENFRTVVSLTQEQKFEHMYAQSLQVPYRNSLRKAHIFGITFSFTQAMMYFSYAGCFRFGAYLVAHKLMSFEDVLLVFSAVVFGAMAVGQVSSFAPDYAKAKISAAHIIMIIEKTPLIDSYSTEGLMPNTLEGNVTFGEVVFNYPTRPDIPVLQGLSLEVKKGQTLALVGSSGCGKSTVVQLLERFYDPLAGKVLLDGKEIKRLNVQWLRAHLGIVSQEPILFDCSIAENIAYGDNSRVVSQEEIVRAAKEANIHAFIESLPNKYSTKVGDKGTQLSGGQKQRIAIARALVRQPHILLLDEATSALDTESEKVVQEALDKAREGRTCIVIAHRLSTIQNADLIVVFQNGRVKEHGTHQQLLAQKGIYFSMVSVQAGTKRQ

For the molecule `COc1cc2c(cc1O)OCc1c-2c(-c2ccc(OC)c(OC)c2)c2n1CCc1c-2cc(OC)c(OC)c1OC` [LAMELLARIN I], the Activity result is “inhibitor [+]”.
